Laboratory results from publication PMC2707030 (Clinical cancer research : an official journal of the …, 2009).

Tests used:
[1] = test system: ATP-binding cassette transporter ABCB1 (P-glycoprotein, MDR1); details: cited from earlier work
[2] = Population pharmacokinetics; assay type: in vivo, human
[3] = rats; cited from earlier work
[4] = cited from earlier work
[5] = nonparametric bootstrap, 1342 converged of 1500 runs, 98 patients, final model

Structure (SMILES): C/C=C1\NC(=O)[C@H]2CSSCC/C=C/[C@H](CC(=O)N[C@H](C(C)C)C(=O)N2)OC(=O)[C@H](C(C)C)NC1=O [romidepsin]
- Substrate of ABCB1 [1]: substrate
- CL, non-carriers of ABCB1 2677 GA/AA ([2]; difference to carriers did not reach statistical criteria (ΔOFV = 3.4)): 16 L/h
- Estimated elimination half-life ([2]; following 4-hour infusion, 14 or 18 mg/m^2, final two-compartment model): 3.5 h
- CL, carriers of ABCB1 2677 GA/AA ([2]; n=7, difference to non-carriers did not reach statistical criteria (ΔOFV = 3.4)): 13 L/h
- CL, bootstrap analysis median (%RSE) [2, 5]: 15.9 (6.2) L/h
- Q, bootstrap analysis median (%RSE) [2, 5]: 1.01 (14.7) L/h
- V1, bootstrap analysis median (%RSE) [2, 5]: 9.71 (8.9) L
- V2, bootstrap analysis median (%RSE) [2, 5]: 4.73 (11.1) L
- Fraction of the dose excreted into the bile [3]: 66%
- Total clearance reported in adults ([4]; dose 13 mg/m^2): 4.8 L/h/m^2
- Mean CL reported in adults ([4]; dose 17.8 mg/m^2): 10.5 L/h/m^2
